Experimental data as given in patent US20240307382A1, “MODULATORS OF THE INTEGRATED STRESS PATHWAY” (Calico Life Sciences LLC, priority 2017, published 2024).

Test system: HEK293T cells carrying the ATF4 luciferase reporter
Experiment: ATF4-Luc assay (ATF4 luciferase reporter, tunicamycin-treated cells)
Assay type: cell-based
Conditions: Homo sapiens, HEK-293T, 1 μg/mL tunicamycin, 7 hours
Protocol: In order to test exemplary compounds of the invention in a cellular context, a stable VWMD cell line was first constructed. The ATF4 reporter was prepared by fusing the human full-length ATF4 5′-UTR (NCBI Accession No. BC022088.2) in front of the firefly luciferase (FLuc) coding sequence lacking the initiator methionine as described in Sidrauski et al (eLife 2013). The construct was used to produce recombinant retroviruses using standard methods and the resulting viral supermatant was used to transduce ITEK293T cells, which were then subsequently selected with puromycin to generate a stable cell line.
HTEK293T cells carrying the ATF4 luciferase reporter were plated on polylysine coated 384-well plates (Greiner Bio-one) at 30,000 cells per well. Cells were treated the next day with 1 μg/mL tunicamycin and 200 nM of a compound of Formula (I) for 7 hours. Luminescence was measured using One Glo (Promega) as specified by the manufacturer. Cells were maintained in DMEM with L-glutamine supplemented with 10% heat-inactivated FBS (Gibco) and Antibiotic-Antimycotic solution (Gibco).
Table 2 below summarizes the EC50 data obtained using the ATF4-Luc assay for exemplary compounds of the invention.

| SMILES | EC50 |
| --- | --- |
| CN(C(=O)c1cc(C(F)F)no1)C12CCC(NC(=O)COc3ccc(Cl)c(F)c3)(CC1)[C@@H](O)C2 [Compound 967, N-{(3S)-4-[2-(4-chloro-3-fluorophenoxy)acetamido]-3-hydroxybicyclo[2.2.2]octan-1-yl}-3-(difluoromethyl)-N-methyl-1,2-oxazole-5-carboxamide] | 1000 to 2000 nM |
| Cc1cc(C(=O)N(C)C23CCC(NC(=O)COc4ccc(Cl)c(Cl)c4)(CC2)[C@@H](O)C3)on1 [Compound 968, N-{(3S)-4-[2-(3,4-dichlorophenoxy)acetamido]-3-hydroxybicyclo[2.2.2]octan-1-yl}-N,3-dimethyl-1,2-oxazole-5-carboxamide] | 1000 to 2000 nM |
| O=C(COc1ccc(Cl)c(F)c1)NC12CCC(NC(=O)c3coc(C(F)F)n3)(CC1)C[C@@H]2O [Compound 969, N-{(3S)-4-[2-(4-chloro-3-fluorophenoxy)acetamido]-3-hydroxybicyclo[2.2.2]octan-1-yl}-2-(difluoromethyl)-1,3-oxazole-4-carboxamide] | < 50 nM |
| CC(O)c1ncc(C(=O)NC23CCC(NC(=O)COc4ccc(Cl)c(F)c4)(CC2)CC3)s1 (stereo not drawn) [Compound 970, N-{4-[2-(4-chloro-3-fluorophenoxy)acetamido]bicyclo[2.2.2]octan-1-yl}-2-(1-hydroxyethyl)-1,3-thiazole-5-carboxamide] | > 2000 nM |
| O=C(COc1ccc(Cl)c(Cl)c1)NC12CC(NC(=O)c3cc(O)c4cc(Cl)ccc4n3)(C1)C2 [Compound 971, 6-chloro-N-{3-[2-(3,4-dichlorophenoxy)acetamido]bicyclo[1.1.1]pentan-1-yl}-4-hydroxyquinoline-2-carboxamide] | < 50 nM |
| O=C(COc1ccc(Cl)c(F)c1)NC12CC(NC(=O)c3cc4c(cn3)CCCC4)(C1)C2 [Compound 972, N-{3-[2-(4-chloro-3-fluorophenoxy)acetamido]bicyclo[1.1.1]pentan-1-yl}-5,6,7,8-tetrahydroisoquinoline-3-carboxamide] | 50 to 250 nM |
| O=C(COc1ccc(Cl)c(F)c1)NC12CCC(NC(=O)c3cnc4cc(C(F)(F)F)ccc4n3)(CC1)C[C@@H]2O [Compound 973, N-{(3S)-4-[2-(4-chloro-3-fluorophenoxy)acetamido]-3-hydroxybicyclo[2.2.2]octan-1-yl}-6-(trifluoromethyl)quinoxaline-2-carboxamide] | < 50 nM |
| CN(C)Cc1ccnc(C(=O)NC23CCC(NC(=O)COc4ccc(Cl)c(F)c4)(CC2)CC3)c1 [Compound 974, N-{4-[2-(4-chloro-3-fluorophenoxy)acetamido]bicyclo[2.2.2]octan-1-yl}-4-[(dimethylamino)methyl]pyridine-2-carboxamide] | > 2000 nM |
| NCc1ccnc(C(=O)NC23CCC(NC(=O)COc4ccc(Cl)c(F)c4)(CC2)CC3)c1 [Compound 975, 4-(aminomethyl)-N-{4-[2-(4-chloro-3-fluorophenoxy)acetamido]bicyclo[2.2.2]octan-1-yl}pyridine-2-carboxamide] | < 50 nM |
| O=C(COc1ccc(Cl)c(F)c1)NC12CCC(NC(=O)c3cc4cccn4cn3)(CC1)C[C@@H]2O [Compound 976, N-{(3S)-4-[2-(4-chloro-3-fluorophenoxy)acetamido]-3-hydroxybicyclo[2.2.2]octan-1-yl}pyrrolo[1,2-c]pyrimidine-3-carboxamide] | 50 to 250 nM |
| O=C(COc1ccc(Cl)c(F)c1)NC12CCC(NC(=O)c3ccnc(CO)c3)(CC1)CC2 [Compound 977, N-{4-[2-(4-chloro-3-fluorophenoxy)acetamido]bicyclo[2.2.2]octan-1-yl}-2-(hydroxymethyl)pyridine-4-carboxamide] | > 2000 nM |
| CC(C)(C)OC(=O)NCc1ccnc(C(=O)NC23CCC(NC(=O)COc4ccc(Cl)c(F)c4)(CC2)CC3)c1 [Compound 978, tert-butyl {[2-({4-[2-(4-chloro-3-fluorophenoxy)acetamido]bicyclo[2.2.2]octan-1-yl}carbamoyl)pyridin-4-yl]methyl}carbamate] | > 2000 nM |
| CCc1cnc(C(=O)NC23CCC(NC(=O)COc4ccc(Cl)c(F)c4)(CC2)CC3)cn1 [Compound 979, N-{4-[2-(4-chloro-3-fluorophenoxy)acetamido]bicyclo[2.2.2]octan-1-yl}-5-ethylpyrazine-2-carboxamide] | > 2000 nM |
| O=C(COc1ccc(Cl)c(Cl)c1)NC12CCC(NC(=O)c3ccc(C(F)F)cn3)(CC1)CC2 [Compound 980, N-{4-[2-(3,4-dichlorophenoxy)acetamido]bicyclo[2.2.2]octan-1-yl}-5-(difluoromethyl)pyridine-2-carboxamide] | 50 to 250 nM |
| O=C(COc1ccc(Cl)c(F)c1)NC12CCC(NC(=O)c3cccc(CO)c3)(CC1)CC2 [Compound 981, N-{4-[2-(4-chloro-3-fluorophenoxy)acetamido]bicyclo[2.2.2]octan-1-yl}-3-(hydroxymethyl)benzamide] | 250 to 1000 nM |
| O=C(COc1ccc(Cl)c(F)c1)NC12CCC(NC(=O)c3cccc(O)c3)(CC1)CC2 [Compound 982, N-{4-[2-(4-chloro-3-fluorophenoxy)acetamido]bicyclo[2.2.2]octan-1-yl}-3-hydroxybenzamide] | 250 to 1000 nM |
| O=C(COc1ccc(Cl)c(F)c1)NC12CCC(NC(=O)c3cc(C(F)F)no3)(CC1)CC2 [Compound 983, N-{4-[2-(4-chloro-3-fluorophenoxy)acetamido]bicyclo[2.2.2]octan-1-yl}-3-(difluoromethyl)-1,2-oxazole-5-carboxamide] | 250 to 1000 nM |
| O=C(COc1ccc(Cl)c(F)c1)NC12CCC(NC(=O)c3ccc4c(c3)OC(F)(F)O4)(CC1)C[C@@H]2O [Compound 984, N-{(3S)-4-[2-(4-chloro-3-fluorophenoxy)acetamido]-3-hydroxybicyclo[2.2.2]octan-1-yl}-2,2-difluoro-2H-1,3-benzodioxole-5-carboxamide] | < 50 nM |
| O=C(COc1ccc(Cl)c(Cl)c1)NC12CCC(NC(=O)c3ccc4c(c3)OC(F)(F)O4)(CC1)C[C@@H]2O [Compound 985, N-{(3S)-4-[2-(3,4-dichlorophenoxy)acetamido]-3-hydroxybicyclo[2.2.2]octan-1-yl}-2,2-difluoro-2H-1,3-benzodioxole-5-carboxamide] | < 50 nM |
| O=C(COc1ccc(Cl)c(F)c1)NC12CCC(NC(=O)c3cnc(C(F)F)cn3)(CC1)C[C@@H]2O [Compound 986, N-{(3S)-4-[2-(4-chloro-3-fluorophenoxy)acetamido]-3-hydroxybicyclo[2.2.2]octan-1-yl}-5-(difluoromethyl)pyrazine-2-carboxamide] | < 50 nM |
| O=C(COc1ccc(Cl)c(Cl)c1)NC12CCC(NC(=O)c3ccc(C(F)F)nc3)(CC1)C[C@@H]2O [Compound 987, N-{(3S)-4-[2-(3,4-dichlorophenoxy)acetamido]-3-hydroxybicyclo[2.2.2]octan-1-yl}-6-(difluoromethyl)pyridine-3-carboxamide] | < 50 nM |
| O=C(COc1ccc(Cl)c(F)c1)NC12CCC(NC(=O)c3ccc(C(F)F)nc3)(CC1)C[C@@H]2O [Compound 988, N-{(3S)-4-[2-(4-chloro-3-fluorophenoxy)acetamido]-3-hydroxybicyclo[2.2.2]octan-1-yl}-6-(difluoromethyl)pyridine-3-carboxamide] | 50 to 250 nM |
| O=C(COc1ccc(Cl)c(F)c1)NC12CCC(NC(=O)c3cnc(C4CC4)o3)(CC1)CC2 [Compound 989, N-{4-[2-(4-chloro-3-fluorophenoxy)acetamido]bicyclo[2.2.2]octan-1-yl}-2-cyclopropyl-1,3-oxazole-5-carboxamide] | 250 to 1000 nM |
| O=C(COc1ccc(Cl)c(Cl)c1)NC12CCC(NC(=O)c3ccc(C(F)F)cn3)(CC1)C[C@@H]2O [Compound 990, N-{(3S)-4-[2-(3,4-dichlorophenoxy)acetamido]-3-hydroxybicyclo[2.2.2]octan-1-yl}-5-(difluoromethyl)pyridine-2-carboxamide] | < 50 nM |
| O=C(COc1ccc(Cl)c(Cl)c1)NC12CCC(NC(=O)c3cc(CO)ccn3)(CC1)CC2 [Compound 991, N-{4-[2-(3,4-dichlorophenoxy)acetamido]bicyclo[2.2.2]octan-1-yl}-4-(hydroxymethyl)pyridine-2-carboxamide] | < 50 nM |
| COCc1cncc(C(=O)NC23CCC(NC(=O)COc4ccc(Cl)c(Cl)c4)(CC2)CC3)c1 [Compound 992, N-{4-[2-(3,4-dichlorophenoxy)acetamido]bicyclo[2.2.2]octan-1-yl}-5-(methoxymethyl)pyridine-3-carboxamide] | 50 to 250 nM |
| O=C(COc1ccc(Cl)c(Cl)c1)NC12CCC(NC(=O)c3ccccn3)(CC1)CC2 [Compound 993, N-{4-[2-(3,4-dichlorophenoxy)acetamido]bicyclo[2.2.2]octan-1-yl}pyridine-2-carboxamide] | 50 to 250 nM |
| O=C(COc1ccc(Cl)c(Cl)c1)NC12CCC(NC(=O)c3cccnc3)(CC1)CC2 [Compound 994, N-{4-[2-(3,4-dichlorophenoxy)acetamido]bicyclo[2.2.2]octan-1-yl}pyridine-3-carboxamide] | 250 to 1000 nM |
| O=C(COc1ccc(Cl)c(F)c1)NC12CCC(NC(=O)c3cc(CO)ccn3)(CC1)CC2 [Compound 995, N-{4-[2-(4-chloro-3-fluorophenoxy)acetamido]bicyclo[2.2.2]octan-1-yl}-4-(hydroxymethyl)pyridine-2-carboxamide] | < 50 nM |
| O=C(COc1ccc(Cl)c(F)c1)NC12CCC(NC(=O)c3ccc(OC(F)(F)F)nc3)(CC1)CC2 [Compound 996, N-{4-[2-(4-chloro-3-fluorophenoxy)acetamido]bicyclo[2.2.2]octan-1-yl}-6-(trifluoromethoxy)pyridine-3-carboxamide] | > 2000 nM |
